Results taken from patent US9181238B2, “N-(pyridin-2-yl)sulfonamides and compositions thereof as protein kinase inhibitors” (NOVARTIS AG, priority 2010, dated 2015).

Tested on: A375-luc cells
Assay: A375 Cellular Proliferation Assay
Format: cell-based
Details: Homo sapiens, A-375, 48 h; A375-luc melanoma cells (B-Raf V600E), 2 days incubation, BrightGlo luminescence; read-out: A375 CP IC50
Experimental: A375 Cellular Proliferation Assay
A375 is a melanoma cell line that harbors the B-Raf V600E mutation. A375-luc cells engineered to express luciferase are plated to 384-well white clear bottom plates as 1,500 cells/50 μl/well in DMEM containing 10% FBS. Compounds of the invention dissolved in 100% DMSO at appropriate concentrations are transferred to the cells by a robotic Pin Tool (100 nl). The cells are incubated for 2 days at […], then 25 μl of BrightGlo™ is added to each well and the plates are read by luminescence. The concentration of each compound for 50% inhibition (IC50) was calculated by non-linear regression using XL Fit data analysis software.

IC50 [nM] | SMILES
13 | CCCS(=O)(=O)Nc1ncc(F)c(Nc2nccnc2-c2cc(NCC)ncn2)c1F [Compound 1, N-(4-(3-(6-(Ethylamino)pyrimidin-4-yl)pyrazin-2-ylamino)-3,5-difluoropyridin-2-yl)propane-1-sulfonamide]
3 | CCCS(=O)(=O)Nc1ncc(F)c(Nc2nccnc2-c2cc(NCCC#N)ncn2)c1F [Compound 2, N-(4-(3-(6-(2-cyanoethylamino)pyrimidin-4-yl)pyrazin-2-ylamino)-3,5-difluoropyridin-2-yl)propane-1-sulfonamide]
21 | CCCS(=O)(=O)Nc1ncc(F)c(Nc2nccnc2-c2cc(NCCC(F)(F)F)ncn2)c1F [Compound 3, N-(3,5-difluoro-4-(3-(6-(3,3,3-trifluoropropylamino)pyrimidin-4-yl)pyrazin-2-ylamino)pyridin-2-yl)propane-1-sulfonamide]
12 | CCCS(=O)(=O)Nc1ncc(F)c(Nc2nccnc2-c2cc(NCC(F)F)ncn2)c1F [Compound 4, N-(4-(3-(6-(2,2-difluoroethylamino)pyrimidin-4-yl)pyrazin-2-ylamino)-3,5-difluoropyridin-2-yl)propane-1-sulfonamide]
31 | CCCS(=O)(=O)Nc1ncc(F)c(Nc2nccnc2-c2cc(NC)ncn2)c1F [Compound 5, N-(3,5-difluoro-4-(3-(6-(methylamino)pyrimidin-4-yl)pyrazin-2-ylamino)pyridin-2-yl)propane-1-sulfonamide]
121 | CCCS(=O)(=O)Nc1ncc(F)c(Nc2nccnc2-c2cc(NCC)ncn2)c1Cl [Compound 6, N-(3-chloro-4-(3-(6-(ethylamino)pyrimidin-4-yl)pyrazin-2-ylamino)-5-fluoropyridin-2-yl)propane-1-sulfonamide]
49 | CCCS(=O)(=O)Nc1ncc(F)c(Nc2nccnc2-c2cc(NCC(F)(F)F)ncn2)c1F [Compound 7, N-(3,5-difluoro-4-(3-(6-(2,2,2-trifluoroethylamino)pyrimidin-4-yl)pyrazin-2-ylamino)pyridin-2-yl)propane-1-sulfonamide]
191 | CCCS(=O)(=O)Nc1ncc(F)c(Nc2nccnc2-c2cc(NCCS(C)(=O)=O)ncn2)c1F [Compound 8, N-(3,5-difluoro-4-(3-(6-(2-(methylsulfonyl)ethylamino)pyrimidin-4-yl)pyrazin-2-ylamino)pyridin-2-yl)propane-1-sulfonamide]
56 | CCCS(=O)(=O)Nc1ncc(F)c(-c2cc3cnc(NC)nc3n(C)c2=O)c1F [Compound 10, N-(3,5-difluoro-4-(8-methyl-2-(methylamino)-7-oxo-7,8-dihydropyrido[2,3-d]pyrimidin-6-yl)pyridin-2-yl)propane-1-sulfonamide]
229 | CCCS(=O)(=O)Nc1nccc(-c2cc3cnc(NC)nc3n(C)c2=O)c1F [Compound 11, N-(3-fluoro-4-(8-methyl-2-(methylamino)-7-oxo-7,8-dihydropyrido[2,3-d]pyrimidin-6-yl)pyridin-2-yl)propane-1-sulfonamide]
14 | CCCS(=O)(=O)Nc1ncc(F)c(-c2cc3cnc(NC[C@H](C)NC(=O)OC)nc3n(C)c2=O)c1F [Compound 12, (S)-methyl 1-(6-(3,5-difluoro-2-(propylsulfonamido)pyridin-4-yl)-8-methyl-7-oxo-7,8-dihydropyrido[2,3-d]pyrimidin-2-ylamino)propan-2-ylcarbamate]
130 | CNc1ncc2cc(-c3c(F)cnc(NS(=O)(=O)CCC(F)(F)F)c3F)c(=O)n(C)c2n1 [Compound 14, N-(3,5-difluoro-4-(8-methyl-2-(methylamino)-7-oxo-7,8-dihydropyrido[2,3-d]pyrimidin-6-yl)pyridin-2-yl)-3,3,3-trifluoropropane-1-sulfonamide]
12 | CCCS(=O)(=O)Nc1ncc(F)c(-c2cc3cnc(NCCC#N)cc3n(C)c2=O)c1F [Compound 15, N-(4-(7-(2-cyanoethylamino)-1-methyl-2-oxo-1,2-dihydro-1,6-naphthyridin-3-yl)-3,5-difluoropyridin-2-yl)propane-1-sulfonamide]

SMILES | IC50 [nM]
CCCS(=O)(=O)Nc1ncc(F)c(-c2cc3cnc(NCC)cc3n(C)c2=O)c1F [Compound 13, N-(4-(7-(Ethylamino)-1-methyl-2-oxo-1,2-dihydro-1,6-naphthyridin-3-yl)-3,5-difluoropyridin-2-yl)propane-1-sulfonamide] | 10
